Experimental findings from patent publication US20070173532A1, “New Piperidine Antibiotics” (Actelion Pharmaceuticals Ltd., priority 2004, published 2007) are described below.

≈ marks a conversion by molar mass, not a printed value.

For orientation: MIC means the least concentration at which growth counts as inhibited.

Assay type in all cases: cell-based
One test deals with S. aureus 29213. In words: MIC by microdilution (NCCLS) against S. aureus 29213. The note with it: pH 7.2-7.3; for MIC: Staphylococcus aureus, 29213, cation-adjusted Mueller-Hinton Broth. Here is the method:
(§1) These assays have been performed following the description given in “Methods for dilution Antimicrobial Susceptibility Tests for Bacteria that Grow Aerobically, 4th ed.; Approved standard: NCCLS Document M7-A4; National Committee for Clinical Laboratory Standards: Villanova, Pa., USA, 1997”. Minimal inhibitory concentrations (MICs; mg/l) were determined in cation-adjusted Mueller-Hinton Broth (BBL) by a microdilution method following NCCLS guidelines (National Committee for Clinical Laboratory Standards. Methods for Dilution Antimicrobial Susceptibility). The pH of the test medium was 7.2-7.3. All Examples were tested against several Gram positive and Gram negative bacteria.

The next test has as its system S. aureus A798. Nature of the test: MIC by microdilution (NCCLS) against S. aureus A798. The following applies: pH 7.2-7.3; for MIC: Staphylococcus aureus, A798, cation-adjusted Mueller-Hinton Broth. As to the method:
as §1
Background: Dilution methods test growth across graded concentrations, often in twofold steps.

The subject of another test is E. faecalis 29212. Nature of the test: MIC by microdilution (NCCLS) against E. faecalis 29212. The note with it: pH 7.2-7.3; for MIC: Enterococcus faecalis, 29212, cation-adjusted Mueller-Hinton Broth. Here is the method: as §1
The next test concerns E. faecium A949. Nature of the test: MIC by microdilution (NCCLS) against E. faecium A949. The following applies: pH 7.2-7.3; for MIC: Enterococcus faecium, A949, cation-adjusted Mueller-Hinton Broth. Here is the method:
as §1

Another test deals with S. pneumoniae 49619. Nature of the test: MIC by microdilution (NCCLS) against S. pneumoniae 49619. The following applies: for MIC: Streptococcus pneumoniae, 49619, cation-adjusted Mueller-Hinton Broth, pH 7.2-7.3, read-out: MIC S. Pneunoniae 49619. As to the method: as §1
The subject of a further test is S. Pneunoniae A70. Nature of the test: MIC by microdilution (NCCLS) against S. Pneunoniae A70. The following applies: cation-adjusted Mueller-Hinton Broth, pH 7.2-7.3. As to the method:
as §1

Setting [1] is: cation-adjusted Mueller-Hinton Broth.

On to `COc1cnc2cccc(C(O)CC[C@@H]3CCN(C/C=C/c4ccccc4)C[C@@H]3C(=O)O)c2c1` (mixture of isomers) [Example 10, (3R,4R)-4-[(3RS)-3-hydroxy-3-(3-methoxy-quinolin-5-yl)-propyl]-1-trans-(3-phenyl-allyl)-piperidine-3-carboxylic acid], for which the “MIC S. aureus 29213” value in the test on S. aureus 29213 (setting [1]) came to 0.5 µg/mL (≈ 1.09 µM). In addition, the “MIC S. aureus A798” value against S. aureus A798 (setting [1]) was determined as 0.25 µg/mL (≈ 0.543 µM). Further, the “MIC E. faecalis 29212” value in the test on E. faecalis 29212 (setting [1]) came to 4 µg/mL (≈ 8.68 µM). For the same compound, the “MIC E. faecium A949” value in the test with E. faecium A949 (setting [1]) was 4 µg/mL (≈ 8.68 µM). For the same compound, in the test on S. pneumoniae 49619 (cation-adjusted Mueller-Hinton Broth, pH 7.2-7.3), the “MIC S. Pneunoniae 49619” value was 1 µg/mL (≈ 2.17 µM). In addition, the “MIC S. Pneunoniae A70” value in the test on S. Pneunoniae A70 was 4 µg/mL (≈ 8.68 µM).

For `COc1cnc2cccc(OCC[C@@H]3CCN(CCSc4cccs4)C[C@@H]3CCC(=O)O)c2c1` [Example 1, 3-{(3R,4S)-4-[2-(3-methoxy-quinolin-5-yloxy)-ethyl]-1-[2-(thiophen-2-ylsulfanyl)-ethyl]-piperidin-3-yl}-propionic acid], the MIC was 0.5 µg/mL (≈ 0.999 µM) against S. aureus 29213; 0.25 µg/mL (≈ 0.499 µM) against S. aureus A798; 8 µg/mL (≈ 16 µM) against E. faecalis 29212; 1 µg/mL (≈ 2 µM) against E. faecium A949; 0.5 µg/mL (≈ 0.999 µM) in the test with S. pneumoniae 49619; 1 µg/mL (≈ 2 µM) against S. Pneunoniae A70.

Take `COc1cnc2cccc(OCC[C@@H]3CCN(CCSc4cccs4)C[C@@H]3CCCO)c2c1` [Example 2, 3-{(3R,4S)4-[2-(3-methoxy-quinolin-5-yloxy)-ethyl]-1-[2-(thiophen-2-ylsulfanyl)-ethyl]-piperidin-3-yl}-propan-1-ol]: the MIC stood at 1 µg/mL (≈ 2.05 µM) against S. aureus 29213; 0.25 µg/mL (≈ 0.514 µM) against S. aureus A798; 2 µg/mL (≈ 4.11 µM) in the test with E. faecalis 29212; 2 µg/mL (≈ 4.11 µM) with E. faecium A949; 0.5 µg/mL (≈ 1.03 µM) in the test on S. pneumoniae 49619; 1 µg/mL (≈ 2.05 µM) against S. Pneunoniae A70.
